Data reported in ChEMBL document CHEMBL1135978, “Three-dimensional quantitative structure-activity relationship of 1,4-dihydropyridines as antitubercular agents” (2002).

Each molecule was assayed on Mycobacterium tuberculosis (assay: Antitubercular activity against Mycobacterium tuberculosis H37Rv ATCC 27294).
Format: functional
Parameters: concentration or dose not given beside the values; unit not given here

First: CC1=C(C(=O)Nc2ccccc2Cl)C(c2ccc(Cl)cc2)C(C(=O)Nc2ccccc2Cl)=C(C)N1
Second: CSc1ccc(C2C(C(=O)Nc3ccccc3Cl)=C(C)NC(C)=C2C(=O)Nc2ccccc2Cl)cc1
The Inhibition of the first is lower: -0.6886 for the first, 0.55 for the second.

First: CC1=C(C(=O)Nc2ccc(Cl)cc2)C(c2cccc([N+](=O)[O-])c2)C(C(=O)Nc2ccc(Cl)cc2)=C(C)N1
Second: CC1=C(C(=O)Nc2ccc(Cl)cc2)C(c2ccc(O)cc2)C(C(=O)Nc2ccc(Cl)cc2)=C(C)N1
The Inhibition of the first is lower: -0.3888 for the first, 0.575 for the second.

Compared with `CC1=C(C(=O)Nc2cccc([N+](=O)[O-])c2)C(c2ccccc2)C(C(=O)Nc2cccc([N+](=O)[O-])c2)=C(C)N1`, `CC1=C(C(=O)Nc2cccc([N+](=O)[O-])c2)C(c2ccccc2Cl)C(C(=O)Nc2cccc([N+](=O)[O-])c2)=C(C)N1` is higher in Inhibition: 1.1949 for the first, 1.5096 for the second.

First: CC1=C(C(=O)Nc2ccccc2Cl)C(c2ccccc2Cl)C(C(=O)Nc2ccccc2Cl)=C(C)N1
Second: CC1=C(C(=O)Nc2ccccc2Cl)C(c2ccccc2S)C(C(=O)Nc2ccccc2Cl)=C(C)N1
The Inhibition of the first is higher: -0.6585 for the first, -0.954 for the second.

`COc1ccccc1NC(=O)C1=C(C)NC(C)=C(C(=O)Nc2ccccc2OC)C1c1ccc(N(C)C)cc1` and `COc1ccccc1NC(=O)C1=C(C)NC(C)=C(C(=O)Nc2ccccc2OC)C1c1ccc(SC)cc1` are the same in Inhibition: 1.1233 for the first, 1.1233 for the second.

Going from `CC1=C(C(=O)Nc2ccccc2Cl)C(c2ccc(Cl)cc2Cl)C(C(=O)Nc2ccccc2Cl)=C(C)N1` to `CC1=C(C(=O)Nc2ccccc2Cl)C(c2ccccc2O)C(C(=O)Nc2ccccc2Cl)=C(C)N1`, the Inhibition falls from -0.9079 to -1.1949.

First: CSc1ccc(C2C(C(=O)Nc3ccc([N+](=O)[O-])cc3)=C(C)NC(C)=C2C(=O)Nc2ccc([N+](=O)[O-])cc2)cc1
Second: CC1=C(C(=O)Nc2ccc([N+](=O)[O-])cc2)C(c2ccc(Cl)cc2)C(C(=O)Nc2ccc([N+](=O)[O-])cc2)=C(C)N1
The Inhibition of the first is higher: 1.5096 for the first, 0.2126 for the second.

First: CC1=C(C(=O)Nc2ccc([N+](=O)[O-])cc2)C(c2ccccc2Cl)C(C(=O)Nc2ccc([N+](=O)[O-])cc2)=C(C)N1
Second: CC1=C(C(=O)Nc2ccc([N+](=O)[O-])cc2)C(c2ccc(Cl)cc2Cl)C(C(=O)Nc2ccc([N+](=O)[O-])cc2)=C(C)N1
The Inhibition of the first is lower: 1.2787 for the first, 1.3802 for the second.

Compared with `CSc1ccc(C2C(C(=O)Nc3cccc([N+](=O)[O-])c3)=C(C)NC(C)=C2C(=O)Nc2cccc([N+](=O)[O-])c2)cc1`, `CC1=C(C(=O)Nc2cccc([N+](=O)[O-])c2)C(c2ccccc2O)C(C(=O)Nc2cccc([N+](=O)[O-])c2)=C(C)N1` is lower in Inhibition: 1.6901 for the first, 1.0606 for the second.

First: CSc1ccc(C2C(C(=O)Nc3ccc(C)cc3C)=C(C)NC(C)=C2C(=O)Nc2ccc(C)cc2C)cc1
Second: CC1=C(C(=O)Nc2ccc(C)cc2C)C(c2ccccc2)C(C(=O)Nc2ccc(C)cc2C)=C(C)N1
The Inhibition of the first is higher: 0.158 for the first, -0.865 for the second.

Compared with `COc1cc(C2C(C(=O)Nc3ccc(Cl)cc3)=C(C)NC(C)=C2C(=O)Nc2ccc(Cl)cc2)cc(OC)c1OC`, `COc1ccc(C2C(C(=O)Nc3ccc(Cl)cc3)=C(C)NC(C)=C2C(=O)Nc2ccc(Cl)cc2)c(O)c1` is lower in Inhibition: 1.1949 for the first, 0.63 for the second.

First: CSc1ccc(C2C(C(=O)Nc3ccccc3)=C(C)NC(C)=C2C(=O)Nc2ccccc2)cc1
Second: COc1ccc(C2C(C(=O)Nc3ccccc3Cl)=C(C)NC(C)=C2C(=O)Nc2ccccc2Cl)cc1
The Inhibition of the first is higher: 0.3474 for the first, -0.3679 for the second.

Going from `CC1=C(C(=O)Nc2cc(C)ccc2C)C(c2ccccc2O)C(C(=O)Nc2cc(C)ccc2C)=C(C)N1` to `COc1ccc(C2C(C(=O)Nc3cc(C)ccc3C)=C(C)NC(C)=C2C(=O)Nc2cc(C)ccc2C)cc1`, the Inhibition rises from -0.432 to -0.158.

Compared with `CC1=C(C(=O)Nc2ccc(C)cc2C)C(c2cccc([N+](=O)[O-])c2)C(C(=O)Nc2ccc(C)cc2C)=C(C)N1`, `COc1ccccc1NC(=O)C1=C(C)NC(C)=C(C(=O)Nc2ccccc2OC)C1c1cccc([N+](=O)[O-])c1` is higher in Inhibition: 0.0521 for the first, 0.2498 for the second.

Compared with `COc1ccccc1NC(=O)C1=C(C)NC(C)=C(C(=O)Nc2ccccc2OC)C1c1ccc(Cl)cc1Cl`, `CC1=C(C(=O)Nc2cccc([N+](=O)[O-])c2)C(c2ccc(Cl)cc2Cl)C(C(=O)Nc2cccc([N+](=O)[O-])c2)=C(C)N1` is higher in Inhibition: 1.0047 for the first, 1.6901 for the second.
